Tests used:
DENV 3 NS5 MTase = target: T1, DENV 3 NS5 MTase (dengue virus type 3, UniProt A9LID6); assay: tryptophan fluorescence quenching; format: binding
T1 sequence (A9LID6 2491-2755 limits assumed): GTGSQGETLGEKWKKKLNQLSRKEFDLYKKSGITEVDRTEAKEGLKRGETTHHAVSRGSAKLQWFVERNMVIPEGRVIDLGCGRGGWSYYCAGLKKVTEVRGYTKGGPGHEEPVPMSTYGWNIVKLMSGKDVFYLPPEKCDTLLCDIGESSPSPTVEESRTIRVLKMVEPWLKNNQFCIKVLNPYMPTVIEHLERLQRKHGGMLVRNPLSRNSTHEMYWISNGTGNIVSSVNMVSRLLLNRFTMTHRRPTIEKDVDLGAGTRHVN

CHIKV nsP1 = target: T2, CHIKV nsP1 (Chikungunya virus strain S27-African prototype, UniProt Q8JUX6); assay: tryptophan fluorescence quenching; format: binding
T2 sequence (Q8JUX6 1-535): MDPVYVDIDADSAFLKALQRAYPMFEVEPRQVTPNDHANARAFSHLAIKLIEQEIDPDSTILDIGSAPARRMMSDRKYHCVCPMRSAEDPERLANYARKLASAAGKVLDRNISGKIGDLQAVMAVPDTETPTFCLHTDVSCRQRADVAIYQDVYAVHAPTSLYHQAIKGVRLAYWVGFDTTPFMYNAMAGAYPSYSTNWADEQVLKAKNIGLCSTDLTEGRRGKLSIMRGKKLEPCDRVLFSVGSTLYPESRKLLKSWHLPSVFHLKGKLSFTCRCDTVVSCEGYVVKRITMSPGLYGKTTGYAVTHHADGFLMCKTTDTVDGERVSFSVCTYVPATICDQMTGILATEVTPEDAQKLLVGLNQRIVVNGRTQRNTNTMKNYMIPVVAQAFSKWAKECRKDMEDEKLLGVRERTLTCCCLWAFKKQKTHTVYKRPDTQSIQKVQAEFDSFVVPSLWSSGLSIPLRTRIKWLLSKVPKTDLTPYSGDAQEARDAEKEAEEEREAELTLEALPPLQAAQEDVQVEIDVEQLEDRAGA

Compound	Kd (DENV 3 NS5 MTase)	Kd (CHIKV nsP1)
O=C(/C=C/c1ccc(O)c(O)c1)OCCc1ccccc1 [CAPE, caffeic acid phenethyl ester]	37.9 ± 6.32 µM	30.6 ± 5.33 µM
Nc1nc2c(ncn2[C@@H]2O[C@H](COP(=O)(O)OP(=O)(O)OP(=O)(O)O)[C@@H](O)[C@H]2O)c(=O)[nH]1 [GTP]	3.03 ± 1 µM	169 ± 21.3 µM
O=c1c(O)c(-c2ccc(O)cc2)oc2c(O)c(O)cc(O)c12 [HC, herbacetin]	13.3 ± 2.69 µM	6.52 ± 0.55 µM
C[S+](CC[C@H](N)C(=O)O)C[C@H]1O[C@@H](n2cnc3c(N)ncnc32)[C@H](O)[C@@H]1O (some centres unmarked) [SAM]	6.67 ± 2.57 µM	10.9 ± 5.15 µM
